Reference: patent US11352372B2, “Benzimidamides compounds comprising an oxaborinin ring” (INSTITUT NATIONAL DE LA SANTÉ ET DE LA RECHERCHE MÉDICALE …, priority 2018, dated 2022)
Structures can show the parent of a compound that is named as a salt.

Each compound was assayed against T1, human kallikrein 5 recombinant enzyme (KLK5) (Homo sapiens, UniProt Q9Y337) (assay: Kinetic FLINT KLK5 assay). Conditions: 7.5 nM KLK5, 9 uM (Tos-Gly-Pro-Arg)2[R110] substrate, pH 8; each compound tested more than once.
T1 construct: The cleaved protein was then further purified on a 1 mL Heparin HP HITRAP column; 6His (cleaved yes); FLAG (cleaved yes); made in house; host or cells: Spodoptera frugiperda Super 9 insect cells (baculovirus, BAC-TO-BAC)
T1 sequence (Q9Y337 67-293 limits assumed): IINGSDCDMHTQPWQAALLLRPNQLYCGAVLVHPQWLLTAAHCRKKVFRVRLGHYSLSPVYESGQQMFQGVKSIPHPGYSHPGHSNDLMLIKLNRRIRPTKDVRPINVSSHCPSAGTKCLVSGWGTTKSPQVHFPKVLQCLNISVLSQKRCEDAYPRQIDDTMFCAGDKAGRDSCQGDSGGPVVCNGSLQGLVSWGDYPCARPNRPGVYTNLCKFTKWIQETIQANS
Format: biochemical
Experimental: Recombinant KLK5 protein was generated from a recombinant baculovirus using the BAC-TO-BAC system (INVITROGEN) (pFastBac_hKLK5_6His-Q-FLAG) expressed in 5 L of Spodoptera frugiperda Super 9 insect cells with a viral infection rate of 1.0. The protein was secreted into HYCLONE SFX growth media (GE HEALTHCARE) from which it was extracted on a 5 mL HISTRAP EXCEL column (GE HEALTHCARE). The column was washed with 500 mM NaCl, 20 mM Tris pH 7.4 buffer and the protein eluted using 500 mM imidazole in 250 mM NaCl, 20 mM Tris pH 7.4 buffer. The eluent was captured on a 5 mL ANTI-FLAG M2 Affinity Gel column (SIGMA). KLK5 was eluted by competing off the bound protein with 0.2 mg/mL FLAG peptide (SIGMA) in 50 mM NaCl, 20 mM Tris-HCl pH 7.4 buffer. 1 M CaCl2 was added to the pooled fractions to a final concentration 2 mM and these were treated with 0.1 U of enterokinase (NOVAGEN) per μg of target protein. The proteins were incubated at room temperature for ˜48 h. The cleaved protein was then further purified on a 1 mL Heparin HP HITRAP column (GE HEALTHCARE) in 20 mM MOPS, pH 6.8 buffer, washed with 100 mM NaCl in 20 mM MOPS, pH 6.8 buffer and eluted with 700 mM NaCl in this buffer. Fractions containing KLK5 were pooled and concentrated using an AMICON concentrator with a molecular weight cut off of 10000 Da. For cryoprotection, glycerol was added to a final concentration of 50%. All purifications were carried out using a semi-automated ÄKTA systems from GE HEALTHCARE.
11 point, 3-fold serial dilutions of each supporting compound were prepared in DMSO and 50 nL of these solutions were dispensed into black LV 384-well plates (GREINER BIO-ONE, Stonehouse, UK) using an ECHO 555 acoustic dispenser (LABCYTE, Sunnyvale, Calif.). This gave a final assay concentration range between 10 μM and […] in 5 μL final assay volume. 50 nL DMSO was dispensed into columns 6 and 18 for high and low controls, respectively. The assay plates were sealed and stored at 4° C. until required.
Conditions for the assay of human kallikrein 5 recombinant enzyme (KLK5), were 100 mM sodium phosphate, pH 8, 1 mM CHAPS, 7.5 nM KLK5 enzyme (see above for preparation), 9 uM peptide substrate ((Tos-Gly-Pro-Arg)2[R110].2TFA) in a total reaction volume of 5 μL.
Assays were performed by initially dispensing 2.5 μL of an enzyme solution (15 nM KLK5 in sodium phosphate, pH 8, 1 mM CHAPS) into all wells of the assay plate (except for column 18) then, 2.5 μL of buffer to column 18 (to generate low controls). Reactions were initiated by addition of 2.5 μL of substrate solution [18 uM (Tos-Gly-Pro-Arg)2[R110].2TFA (Cambridge Research Biochemicals) in sodium phosphate, pH 8, 1 mM CHAPS] to all wells. Plates were immediately centrifuged to reach 1000 rpm before transfer to the reader. All additions were made using a MULTIDROP COMBI dispenser (THERMO FISHER SCIENTIFIC). The assay plates were transferred to a PERKIN ELMER VIEWLUX. The plates were excited at 485 nm and the rates of Rhodamine110 fluorecent emission measured at 535 nm, following cleavage of the substrate by KLK5. Ten measurements were taken over 5 minutes with a read interval of 30 seconds.
From the raw data, the enzyme reaction rates were calculated as relative fluorescence units (RFU). Using the 10 reads collected, per well, a straight line was fitted through data. Initial rates were calculated from the slope of the reaction progress curves. The rate data was normalised to % inhibition between high controls in column 6 (0% inhibition) and low controls in column 18 (100% inhibition). Dose response curves were fitted using the IDBS Primary module fit. The data were fitted by means of a four-parameter fit logistic:
Where x is the inhibitor concentration, y is inhibition (%), A is the minimum response, D is the maximum response, C is the IC50 for the curve and B is the Hill slope. The −log(IC50) gives the pIC50.

average pIC50	Compound
8.5	Cl.N=C(N)c1ccc(C2Cc3ccc(C(F)(F)F)cc3B(O)O2)cc1OCc1cccnc1 (centres unmarked) [Compound 1, 4-(1-Hydroxy-7-(trifluoromethyl)-3,4-dihydro-1H-benzo[c][1,2]oxaborinin-3-yl)-2-(pyridin-3-ylmethoxy)benzimidamide hydrochloride salt]
8.1	Cl.N=C(N)c1ccc(C2Cc3cc(Cl)c(F)cc3B(O)O2)cc1OCc1cccnc1 (centres unmarked) [Compound 7, 4-(6-chloro-7-fluoro-1-hydroxy-3,4-dihydro-1H-benzo[c][1,2]oxaborinin-3-yl)-2-(pyridin-3-ylmethoxy)benzimidamide]
8.2	Cl.N=C(N)c1ccc(C2Cc3ccccc3B(O)O2)cc1OCc1cccnc1 (centres unmarked) [Compound 8, 4-(1-hydroxy-3,4-dihydro-1H-benzo[c][1,2]oxaborinin-3-yl)-2-(pyridin-3-ylmethoxy)benzimidamide]

Same assay, conditions: 7.5 nM KLK5, 9 uM (Tos-Gly-Pro-Arg)2[R110] substrate, pH 8; each compound tested more than once; read-out: average pIC50 (converted)

IC50	Compound
3.98 nM	N=C(N)c1ccc([C@H]2Cc3ccc(C(F)(F)F)cc3B(O)O2)cc1OCc1cccnc1 [Compound 2, (R)-4-(1-hydroxy-7-(trifluoromethyl)-3,4-dihydro-1H-benzo[c][1,2]oxaborinin-3-yl)-2-(pyridin-3-ylmethoxy)benzimidamide hydrochloride salt]
39.8 nM	N=C(N)c1ccc([C@H]2Cc3ccc(C(F)(F)F)cc3B(O)O2)cc1OCc1cccnc1 [Compound 3, (R)-4-(1-hydroxy-7-(trifluoromethyl)-3,4-dihydro-1H-benzo[c][1,2]oxaborinin-3-yl)-2-(pyridin-3-ylmethoxy)benzimidamide]
3.98 nM	N=C(N)c1ccc([C@@H]2Cc3ccc(C(F)(F)F)cc3B(O)O2)cc1OCc1cccnc1 [Compound 4]
7.94 nM	N=C(N)c1ccc(C2Cc3ccc(C(F)(F)F)cc3B(O)O2)cc1OCc1cccc(Cl)c1 (centres unmarked) [Compound 5, 2-((3-chlorobenzyl)oxy)-4-(1-hydroxy-7-(trifluoromethyl)-3,4-dihydro-1H-benzo[c][1,2]oxaborinin-3-yl)benzimidamide]
10 nM	N=C(N)c1ccc(C2Cc3ccc(C(F)(F)F)cc3B(O)O2)cc1 (centres unmarked) [Compound 6, 4-(1-hydroxy-7-(trifluoromethyl)-3,4-dihydro-1H-benzo[c][1,2]oxaborinin-3-yl)benzimidamide]
